Measurements as given in article PMC12490239, “Combining BET inhibition with SMAC mimetics restricts tumor growth and triggers immune surveillance in preclinical cancer models” (Cell Reports Medicine, 2025).

Tests used:
Assay in all cases: cells
Parameters in all cases: CellTiter-Glo 2.0 luminescence proliferation/viability assay, single agents, human tumour cell line panel
JVE207 = details: 96 h; single agent; read-out: IC50 SMACm
Protocol: (§1) The effect of BETi, SMACm alone or in combination cell viability was determined using a 96-h CellTiter-Glo2.0 proliferation assay. Cells were seeded in assay plates and placed at 37°C with 5% CO2 for twenty-four hours before treatment. Compounds were added in triplicate in gradients of increasing concentrations, in case of SMACm ranging between 4.5 nM and 10 μM and in case of BETi between 1.4 nM and 3 μM. DMSO served as control. Cell viability was measured by luminescence analysis using luminescence read on Envision plate readers (PerkinElmer). An additional set of colorectal cancer cell lines was assayed with technical duplicates and experimental triplicates. Cell viability was measured by luminescence analysis using luminescence read on Tecan Plate reader. The effects of drug combinations were analyzed using the Bliss Independence Model.[34] Synergy score was calculated by the average of 3 highest and 3 lowest BLISS Gaps between predicted and measured POC (Percentage of Control) values. To investigate the synergistic interaction between BI 894999 (hereafter, BETi) and BI 891065 (hereafter, SMACm), we evaluated the in vitro anti-tumor effect of the single agents or the combination in a large panel of 151 cancer cell lines of different tissue origin: CRC, gastric cancer, non-small cell lung cancer (NSCLC), and pancreatic carcinoma (Figures 1C–1F). As a mono-agent, SMACm was able to inhibit cell proliferation only in a limited number of tested cell lines (4%, Table S2). Most of the cell lines responded to inhibition by BETi, with sensitivity ranging from 10 to 100 nM (Figure 1C). Bliss Gap analysis, performed to analyze the effect of the BETi+SMACm combination on tumor cell growth (Figures 1D–1F), unveiled potent synergistic activity across the cell models tested (Figure 1E), independent of tumor type (Figure 1F).  Figure 1 The combinatorial effect of BI 894999 and BI 891065 across a panel of human tumor cell lines (A) Selectivity and potency profiles of BI 891065. Top left, structure of BI 891065. Top right, IC50 values for BI 891065 inhibition of cIAP1, cIAP2, and XIAP. Bottom, physicochemical properties of […]. (B) WES (Simple Western System) analysis of cIAP1, cIAP2, and XIAP levels upon treatment of HT-29 cells with indicated concentrations of BI 891065 for 6 h (C) IC50 values determined in cell proliferation assays (n = 151) individually for BETi BI 894999 and SMACm BI 891065. Each point represents a cell line tested. (D) Example of proliferation assay for synergy analysis in LoVo cell line; shown is combination plate map matrix and the cell growth inhibition (CGI) at the indicated concentrations; CGI values < 100%: tumor cell growth, CGI 100%: tumor cell stasis, and CGI > 100%: tumor cell killing. (E) Synergy scores across the tested panel of cell lines obtained using Bliss synergy analysis. (F) Violin plots showing the synergy scores for BETi and SMACm combination across indications. N is the number of cell lines tested in each indication group.

COLO678 = details: Homo sapiens, COLO-678, 96 h; single agent; read-out: IC50 SMACm
Protocol: as §1

KP-3 = details: 96 h; single agent; read-out: IC50 SMACm
Protocol: as §1

GSU = details: 96 h; single agent; read-out: IC50 SMACm
Protocol: as §1

WiDr = details: Homo sapiens, WiDr, 96 h; single agent; read-out: IC50 SMACm
Protocol: as §1

HCA7 = details: HCA-7, 96 h; single agent; read-out: IC50 SMACm
Protocol: as §1

PSN1 = details: Homo sapiens, PSN1, 96 h; single agent; read-out: IC50 SMACm
Protocol: as §1

C106 = details: 96 h; single agent; read-out: IC50 SMACm
Protocol: as §1

NCI-H2087 = details: Homo sapiens, NCI-H2087, 96 h; single agent; read-out: IC50 SMACm
Protocol: as §1

NCI-H23 = details: Homo sapiens, NCI-H23, 96 h; single agent; read-out: IC50 SMACm
Protocol: as §1

KLM-1 = details: KLM1, 96 h; single agent; read-out: IC50 SMACm
Protocol: as §1

SNU1411 = details: 96 h; single agent; read-out: IC50 SMACm
Protocol: as §1

C84 = details: 96 h; single agent; read-out: IC50 SMACm
Protocol: as §1

SW1116 = details: Homo sapiens, SW 1116, 96 h; single agent; read-out: IC50 SMACm
Protocol: as §1

C75 = details: 96 h; single agent; read-out: IC50 SMACm
Protocol: as §1

CL14 = details: 96 h; single agent; read-out: IC50 SMACm
Protocol: as §1

CN[C@@H](C)C(=O)Nc1ccc(-c2c(-c3cccnc3OC)nc3cc(C)ccn23)c(C#Cc2ccc3c(C)nccc3c2)n1 [SMACm, BI 891065]
IC50 (JVE207): 7.2 µM
IC50 (COLO678): 2.59 µM
IC50 (KP-3): 4.62 µM
IC50 (GSU): 5.68 µM
IC50 (WiDr): 4.25 µM
IC50 (HCA7): 2.83 µM
IC50 (PSN1): 7.21 µM
IC50 (C106): 1.6 µM
IC50 (NCI-H2087): 5.05 µM
IC50 (NCI-H23): 3.42 µM
IC50 (KLM-1): 3.93 µM
IC50 (SNU1411): 4.87 µM
IC50 (C84): 3.35 µM
IC50 (SW1116): 4.51 µM
IC50 (C75): 2.8 µM
IC50 (CL14): 1.91 µM
